Earlier results on three compounds are cited in patent US20130296440A1 (CHROMADEX INC., priority 2012, published 2013).

Read-outs that look alike come from different tables or passages of the source.

One data set deals with H4IIEC3 rat liver cells. The settings on record: 100 μM.
The conditions of data set [1]: for half life t1/2: in blood; for bioavailability: in vivo.
For a further data set, the target named is CYP2E1 (Homo sapiens, UniProt P05181).
For data set [2] the following is noted: mice; 28-day; 160 pound human equivalent doses of approximately 125 mg/day, 1.25 g/day and 12.5 g/day.
The next data set concerns the target T1, CYP1A1 (Homo sapiens, UniProt P04798).
T1 sequence (P04798 1-512): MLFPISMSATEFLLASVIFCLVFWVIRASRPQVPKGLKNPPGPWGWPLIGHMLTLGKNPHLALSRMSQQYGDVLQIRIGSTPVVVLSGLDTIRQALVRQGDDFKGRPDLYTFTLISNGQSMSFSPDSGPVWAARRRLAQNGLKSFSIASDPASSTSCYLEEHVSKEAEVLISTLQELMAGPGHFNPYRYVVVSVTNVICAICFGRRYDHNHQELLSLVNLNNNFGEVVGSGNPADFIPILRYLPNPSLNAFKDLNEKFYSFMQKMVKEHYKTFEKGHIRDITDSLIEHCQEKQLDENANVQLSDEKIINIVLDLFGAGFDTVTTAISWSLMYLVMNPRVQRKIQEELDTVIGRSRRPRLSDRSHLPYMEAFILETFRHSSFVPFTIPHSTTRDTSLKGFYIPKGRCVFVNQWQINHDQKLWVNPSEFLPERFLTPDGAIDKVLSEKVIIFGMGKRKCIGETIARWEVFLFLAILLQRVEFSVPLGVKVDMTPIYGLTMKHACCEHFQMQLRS
The settings on record: human recombinant.

The next data set concerns the target T2, PPAR-alpha (Rattus norvegicus, UniProt P37230).
T2 construct: Using a luciferase reporter gene construct containing the peroxisome proliferator response element promoter region; endogenous in cells; host or cells: H4IIEC3 rat liver cells
T2 sequence (P37230 1-468): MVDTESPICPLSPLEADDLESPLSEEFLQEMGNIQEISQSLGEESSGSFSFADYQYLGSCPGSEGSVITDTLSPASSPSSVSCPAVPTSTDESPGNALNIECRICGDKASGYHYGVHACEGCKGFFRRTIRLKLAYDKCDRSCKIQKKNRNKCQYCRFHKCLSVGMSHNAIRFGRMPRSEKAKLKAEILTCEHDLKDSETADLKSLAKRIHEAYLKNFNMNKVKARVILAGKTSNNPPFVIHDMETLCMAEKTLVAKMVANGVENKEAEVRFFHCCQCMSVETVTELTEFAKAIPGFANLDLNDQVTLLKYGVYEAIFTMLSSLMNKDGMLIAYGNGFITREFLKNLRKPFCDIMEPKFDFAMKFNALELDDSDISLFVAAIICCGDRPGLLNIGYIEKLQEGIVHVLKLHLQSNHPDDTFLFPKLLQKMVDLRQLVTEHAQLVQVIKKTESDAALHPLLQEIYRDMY
The note with it: for PPAR-alpha activation: luciferase reporter. For orientation: Reporter assays use an easily measured gene product as a stand-in for the process of interest.

In another data set the test system is rat smooth muscle cells. The settings on record: in vitro.
A further data set concerns the target T3, CYP1B1 (Homo sapiens, UniProt Q16678).
T3 sequence (Q16678 1-543): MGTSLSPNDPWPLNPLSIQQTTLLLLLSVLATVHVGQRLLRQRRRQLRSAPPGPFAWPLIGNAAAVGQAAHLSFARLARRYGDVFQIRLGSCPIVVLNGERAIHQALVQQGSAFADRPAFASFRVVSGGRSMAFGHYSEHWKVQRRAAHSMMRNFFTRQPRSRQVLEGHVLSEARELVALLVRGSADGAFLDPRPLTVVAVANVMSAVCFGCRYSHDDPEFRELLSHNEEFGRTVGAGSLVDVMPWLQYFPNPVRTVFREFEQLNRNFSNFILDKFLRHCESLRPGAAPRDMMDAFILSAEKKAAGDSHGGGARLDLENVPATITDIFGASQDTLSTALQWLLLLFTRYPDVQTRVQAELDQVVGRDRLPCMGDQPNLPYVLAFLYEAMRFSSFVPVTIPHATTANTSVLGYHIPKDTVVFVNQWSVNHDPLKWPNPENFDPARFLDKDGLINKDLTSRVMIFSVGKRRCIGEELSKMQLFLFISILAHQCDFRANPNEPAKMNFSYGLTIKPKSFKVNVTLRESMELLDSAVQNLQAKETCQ
The settings on record: human recombinant.

For the next data set, the system named is PLA2. The note with it: cultured cells.
The test system of another data set is COX-2. The note with it: cultured cells.
Another data set deals with T4, 5-LOX (Homo sapiens, UniProt P09917).
T4 construct: endogenous in cells
T4 sequence (P09917 1-674): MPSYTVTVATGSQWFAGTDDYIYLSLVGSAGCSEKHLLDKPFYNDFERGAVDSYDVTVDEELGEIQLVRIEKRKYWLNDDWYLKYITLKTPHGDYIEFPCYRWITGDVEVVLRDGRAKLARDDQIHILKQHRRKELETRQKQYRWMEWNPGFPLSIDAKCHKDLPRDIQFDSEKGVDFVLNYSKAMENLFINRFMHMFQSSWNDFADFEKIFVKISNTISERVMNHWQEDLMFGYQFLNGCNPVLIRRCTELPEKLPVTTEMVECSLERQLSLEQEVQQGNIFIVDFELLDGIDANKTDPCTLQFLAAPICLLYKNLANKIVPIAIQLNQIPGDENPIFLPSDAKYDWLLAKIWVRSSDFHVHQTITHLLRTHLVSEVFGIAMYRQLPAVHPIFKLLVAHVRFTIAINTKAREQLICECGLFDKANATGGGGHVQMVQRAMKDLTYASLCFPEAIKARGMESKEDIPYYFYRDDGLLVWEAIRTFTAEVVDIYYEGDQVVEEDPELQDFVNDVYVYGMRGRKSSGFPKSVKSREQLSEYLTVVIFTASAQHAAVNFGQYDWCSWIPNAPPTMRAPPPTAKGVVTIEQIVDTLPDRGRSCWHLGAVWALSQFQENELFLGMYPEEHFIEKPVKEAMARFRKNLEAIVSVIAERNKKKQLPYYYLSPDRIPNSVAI
The settings on record: cultured cells.

[3] abbreviates: 100 μM, H4IIEC3 rat liver cells.

Sequence of CYP2E1 (P05181 whole entry, species assumed): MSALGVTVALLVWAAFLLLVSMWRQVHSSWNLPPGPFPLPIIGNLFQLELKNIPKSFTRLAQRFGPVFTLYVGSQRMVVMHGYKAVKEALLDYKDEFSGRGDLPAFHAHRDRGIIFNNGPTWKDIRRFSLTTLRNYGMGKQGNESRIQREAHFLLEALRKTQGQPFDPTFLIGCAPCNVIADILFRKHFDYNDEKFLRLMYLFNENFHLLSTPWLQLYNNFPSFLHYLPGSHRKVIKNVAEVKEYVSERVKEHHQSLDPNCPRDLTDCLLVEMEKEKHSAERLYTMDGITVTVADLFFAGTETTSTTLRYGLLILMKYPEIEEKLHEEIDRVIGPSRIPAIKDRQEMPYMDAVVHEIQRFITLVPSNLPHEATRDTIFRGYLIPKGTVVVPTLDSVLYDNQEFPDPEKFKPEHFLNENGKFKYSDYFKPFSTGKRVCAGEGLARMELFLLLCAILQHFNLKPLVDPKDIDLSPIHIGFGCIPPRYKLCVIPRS

For the compound `Oc1ccc(C=Cc2cc(O)cc(O)c2)cc1` [resveratrol, reference compound], in the data set on H4IIEC3 rat liver cells, the toxicity to cells entry is given as “toxic to cells”. Also, in [1], the “half life t1/2” value was 10 to 14 min and the bioavailability result is recorded as “poor bioavailability”.
In the case of `COc1cc(/C=C/c2ccc(O)cc2)cc(OC)c1` [pterostilbene, trans-3,5-dimethoxy-4′-hydroxystilbene], the “inhibition of CYP2E1” value at CYP2E1 was “not”. Further, the “local or systemic toxicity” value in data set [2] is “no local or systemic toxicity”. Further, on CYP1A1, the “inhibition of CYP1A1 isozyme” value is “inhibit”. At PPAR-alpha (setting [3]), the “PPAR-alpha activation relative to 100 μM of ciprofibrate” value is given as approximately 2 fold and the PPAR-alpha activation is recorded as 8 fold over the control. Also, on PPAR-alpha (300 μM, H4IIEC3 rat liver cells), the PPAR-alpha activation was 14 fold over the control. Besides, the “PPAR-alpha activation within a group of similar stilbenes” value on PPAR-alpha (in a manner similar to ciprofibrate (Rimando 2005)) is recorded as “activated PPAR-alpha”. Besides, the “proliferation of rat smooth muscle cells” value with rat smooth muscle cells is “inhibit”. In data set [1], the “half life t1/2” value was 74 to 105 min and the bioavailability entry is given as “orally bioavailable”. Besides, the “inhibition of CYP1B1 isozyme” value at CYP1B1 is recorded as “inhibit”.
Regarding `COc1cc(/C=C/C(=O)CC(=O)/C=C/c2ccc(O)c(OC)c2)ccc1O` [curcumin, (1E,6E)-1,7-Bis(4-hydroxy-3-methoxyphenyl)-1,6-heptadiene-3,5-dione], the water solubility result is on record as “minimally water soluble”. Besides, the PLA2 activity result in the data set on PLA2 is listed as “inhibit”. In addition, the COX-2 activity entry with COX-2 was “inhibit”. Besides, at 5-LOX, the 5-LOX activity entry is “inhibit”. Also, the bioavailability entry in [1] is “poor bioavailability”.
